{"source": "PubChem BioAssay (NCI)", "assay_in_all_cases": "inhibition of tumour cell growth, NCI panel, 48 h", "key": {"[1]": {"system": "IGROV1 ovarian"}, "[2]": {"system": "NCI-H226 lung"}, "[3]": {"system": "EKVX NSCLC"}, "[4]": {"system": "UACC-62 melanoma"}, "[5]": {"system": "MDA-MB-231 breast"}, "[6]": {"system": "CCRF-CEM leukemia"}, "[7]": {"system": "RXF 393 renal"}, "[8]": {"system": "NCI-H522 lung"}, "[9]": {"system": "BT-549 breast"}, "[10]": {"system": "HOP-62 NSCLC"}, "[11]": {"system": "SNB-75 CNS"}, "[12]": {"system": "RPMI-8226 leukemia"}, "[13]": {"system": "HCC-2998 colon"}, "[14]": {"system": "SN12C renal"}, "[15]": {"system": "MDA-MB-435"}, "[16]": {"system": "UO-31 renal"}, "[17]": {"system": "HS 578T breast"}, "[18]": {"system": "SK-MEL-28 melanoma"}, "[19]": {"system": "T-47D breast"}, "[20]": {"system": "HT29 colon"}, "[21]": {"system": "COLO 205 colon"}, "[22]": {"system": "CAKI-1 renal"}, "[23]": {"system": "SNB-19 CNS"}, "[24]": {"system": "ACHN renal"}, "[25]": {"system": "MOLT-4 leukemia"}, "[26]": {"system": "786-0 renal"}, "[27]": {"system": "UACC-257 melanoma"}, "[28]": {"system": "A549 NSCLC"}, "[29]": {"system": "NCI-H460 lung"}, "[30]": {"system": "SW-620 colon"}, "[31]": {"system": "DU-145 prostate"}, "[32]": {"system": "SF-295 CNS"}, "[33]": {"system": "OVCAR-5 ovarian"}, "[34]": {"system": "PC-3 prostate"}, "[35]": {"system": "MDA-N"}, "[36]": {"system": "HCT-15 colon"}, "[37]": {"system": "LOX IMVI melanoma"}, "[38]": {"system": "SK-MEL-5 melanoma"}, "[39]": {"system": "HCT-116 colon"}, "[40]": {"system": "MALME-3M melanoma"}, "[41]": {"system": "OVCAR-8 ovarian"}, "[42]": {"system": "MCF7 breast"}, "[43]": {"system": "SF-268 CNS"}, "[44]": {"system": "U251 CNS"}, "[45]": {"system": "SF-539 CNS"}, "[46]": {"system": "HL-60(TB) leukemia"}, "[47]": {"system": "TK-10 renal"}, "[48]": {"system": "NCI-H23 lung"}, "[49]": {"system": "NCI/ADR-RES ovarian"}, "[50]": {"system": "OVCAR-3 ovarian"}, "[51]": {"system": "SR leukemia"}, "[52]": {"system": "K-562 leukemia"}, "[53]": {"system": "KM12 colon"}}, "note": "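Cells were grown in 96-well plates and exposed to each compound for 48 hours at five concentrations; endpoints were interpolated linearly between bracketing concentrations, or set to the highest concentration if not reached. TGI: concentration producing complete growth inhibition.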", "data": [{"smiles": "O=c1c(SSc2coc3cc(F)ccc3c2=O)coc2cc(F)ccc12", "values": [{"measurement": "TGI", "setting": "[1]", "result": 20.2, "unit": "µM"}, {"measurement": "TGI", "setting": "[2]", "result": "> 100", "unit": "µM"}, {"measurement": "TGI", "setting": "[3]", "result": 99.3, "unit": "µM"}, {"measurement": "TGI", "setting": "[4]", "result": 36.1, "unit": "µM"}, {"measurement": "TGI", "setting": "[5]", "result": 37.1, "unit": "µM"}, {"measurement": "TGI", "setting": "[6]", "result": 37.9, "unit": "µM"}, {"measurement": "TGI", "setting": "[7]", "result": "> 100", "unit": "µM"}, {"measurement": "TGI", "setting": "[8]", "result": 47.3, "unit": "µM"}, {"measurement": "TGI", "setting": "[9]", "result": "> 100", "unit": "µM"}, {"measurement": "TGI", "setting": "[10]", "result": "> 100", "unit": "µM"}, {"measurement": "TGI", "setting": "[11]", "result": 33.6, "unit": "µM"}, {"measurement": "TGI", "setting": "[12]", "result": "> 100", "unit": "µM"}, {"measurement": "TGI", "setting": "[13]", "result": 35.6, "unit": "µM"}, {"measurement": "TGI", "setting": "[14]", "result": 36.6, "unit": "µM"}, {"measurement": "TGI", "setting": "[15]", "result": 36.3, "unit": "µM"}, {"measurement": "TGI", "setting": "[16]", "result": 52.7, "unit": "µM"}, {"measurement": "TGI", "setting": "[17]", "result": 68, "unit": "µM"}, {"measurement": "TGI", "setting": "[18]", "result": 30.4, "unit": "µM"}, {"measurement": "TGI", "setting": "[19]", "result": 46.6, "unit": "µM"}, {"measurement": "TGI", "setting": "[20]", "result": 32.3, "unit": "µM"}, {"measurement": "TGI", "setting": "[21]", "result": 43.2, "unit": "µM"}, {"measurement": "TGI", "setting": "[22]", "result": 43.3, "unit": "µM"}, {"measurement": "TGI", "setting": "[23]", "result": "> 100", "unit": "µM"}, {"measurement": "TGI", "setting": "[24]", "result": 26.1, "unit": "µM"}, {"measurement": "TGI", "setting": "[25]", "result": 69.6, "unit": "µM"}, {"measurement": "TGI", "setting": "[26]", "result": 21.6, "unit": "µM"}, {"measurement": "TGI", "setting": "[27]", "result": 77, "unit": "µM"}, {"measurement": "TGI", "setting": "[28]", "result": "> 100", "unit": "µM"}, {"measurement": "TGI", "setting": "[29]", "result": 98.3, "unit": "µM"}, {"measurement": "TGI", "setting": "[30]", "result": 43, "unit": "µM"}, {"measurement": "TGI", "setting": "[31]", "result": "> 100", "unit": "µM"}, {"measurement": "TGI", "setting": "[32]", "result": "> 100", "unit": "µM"}, {"measurement": "TGI", "setting": "[33]", "result": "> 100", "unit": "µM"}, {"measurement": "TGI", "setting": "[34]", "result": 21.5, "unit": "µM"}, {"measurement": "TGI", "setting": "[35]", "result": 34.3, "unit": "µM"}, {"measurement": "TGI", "setting": "[36]", "result": 33.3, "unit": "µM"}, {"measurement": "TGI", "setting": "[37]", "result": 8.21, "unit": "µM"}, {"measurement": "TGI", "setting": "[38]", "result": 46.2, "unit": "µM"}, {"measurement": "TGI", "setting": "[39]", "result": 19.3, "unit": "µM"}, {"measurement": "TGI", "setting": "[40]", "result": "> 100", "unit": "µM"}, {"measurement": "TGI", "setting": "[41]", "result": "> 100", "unit": "µM"}, {"measurement": "TGI", "setting": "[42]", "result": 43.6, "unit": "µM"}, {"measurement": "TGI", "setting": "[43]", "result": "> 100", "unit": "µM"}, {"measurement": "TGI", "setting": "[44]", "result": 79, "unit": "µM"}, {"measurement": "TGI", "setting": "[45]", "result": "> 100", "unit": "µM"}, {"measurement": "TGI", "setting": "[46]", "result": 54.7, "unit": "µM"}, {"measurement": "TGI", "setting": "[47]", "result": 66.5, "unit": "µM"}, {"measurement": "TGI", "setting": "[48]", "result": "> 100", "unit": "µM"}, {"measurement": "TGI", "setting": "[49]", "result": 78.8, "unit": "µM"}, {"measurement": "TGI", "setting": "[50]", "result": "> 100", "unit": "µM"}, {"measurement": "TGI", "setting": "[51]", "result": "> 100", "unit": "µM"}, {"measurement": "TGI", "setting": "[52]", "result": 64.2, "unit": "µM"}, {"measurement": "TGI", "setting": "[53]", "result": 28.5, "unit": "µM"}]}]}
